In patent publication US4459290A, “C-23-Modified derivatives of OMT, pharmaceutical compositions and method of use” (priority 1982, dated 1984):
Converted amounts (≈) assume the structure as drawn. Like-named read-outs stand apart in the source and are kept apart here.

Columns and labels:
[1] = tested on: Streptococcus pneumoniae Park I; experiment: microbe, parasite or virus in culture; type: cell-based; details: Streptococcus pneumoniae; read-out: MIC
Procedure: (§1) Especially noteworthy is the improved activity against gram-negative bacteria for several derivatives when compared to the activity of OMT. […] The MIC's in Tables V and VI were determined by standard agar-dilution assays. The MIC's in Table VII were obtained using a conventional broth-dilution microtiter test.

[2] = tested on: Haemophilus influenzae R252; experiment: MIC, standard agar-dilution assay (Table V); type: cell-based; details: Haemophilus influenzae, R252
Procedure: (§2) The MIC's in Tables V and VI were determined by standard agar-dilution assays. The MIC's in Table VII were obtained using a conventional broth-dilution microtiter test.

[3] = tested on: Streptococcus pyogenes C203; experiment: MIC, standard agar-dilution assay (Table V); type: cell-based; details: Streptococcus pyogenes, C203
Procedure: as §2

[4] = tested on: Haemophilus influenzae Holt; experiment: MIC, standard agar-dilution assay (Table V); type: cell-based; details: Haemophilus influenzae
Procedure: as §2

[5] = tested on: Pasteurella hemolytica 22C; experiment: MIC, broth-dilution microtiter test (Table VII); type: cell-based; details: Pasteurella, P. hemolytica 22C, read-out: MIC
Summary of the method: (§3)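 Broth microdilution, run as a conventional microtiter test, supplied MICs for the gram-positive S. aureus and the Pasteurella isolates. Enterobacter data instead rest on a standard agar-dilution procedure.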

[6] = tested on: Pasteurella multocida 22A; experiment: MIC, broth-dilution microtiter test (Table VII); type: cell-based; details: Pasteurella multocida; P. multocida 22A; broth-dilution microtiter; read-out: MIC
Summary of the method: (§4)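 Serial compound dilutions were incorporated into agar for testing E. aerogenes. Dilutions in broth, arranged in microtiter wells, were used for S. aureus and P. multocida.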

[7] = tested on: Pasteurella multocida 68C; experiment: MIC, broth-dilution microtiter test (Table VII); type: cell-based; details: Pasteurella multocida; P. multocida 68C; broth-dilution microtiter; read-out: MIC
Summary of the method: as §4

[8] = tested on: Pasteurella multocida 17E; experiment: MIC, broth-dilution microtiter test (Table VII); type: cell-based; details: Pasteurella multocida; P. multocida 17E, bovine isolate; broth-dilution microtiter; read-out: MIC
Summary of the method: as §4

[9] = tested on: Pasteurella hemolytica 41D; experiment: MIC, broth-dilution microtiter test (Table VII); type: cell-based; details: Pasteurella, P. hemolytica 41D, read-out: MIC
Summary of the method: as §3

[10] = tested on: Mycoplasma synoviae; experiment: MIC, broth-dilution microtiter test (Table VII); type: cell-based; details: Mycoplasmopsis synoviae; M. synoviae; broth-dilution microtiter; read-out: MIC
Procedure: as §1

[11] = tested on: Mycoplasma gallisepticum; experiment: MIC, broth-dilution microtiter test (Table VII); type: cell-based; details: Mycoplasmoides gallisepticum; M. gallisepticum; broth-dilution microtiter; read-out: MIC
Procedure: as §1

[12] = tested on: Pasteurella hemolytica 23C; experiment: MIC, broth-dilution microtiter test (Table VII); type: cell-based; details: Pasteurella, P. hemolytica 23C, read-out: MIC
Summary of the method: as §3

[13] = tested on: Pasteurella multocida 60A; experiment: MIC, broth-dilution microtiter test (Table VII); type: cell-based; details: Pasteurella multocida; P. multocida 60A, avian isolate; broth-dilution microtiter; read-out: MIC
Summary of the method: as §4

[14] = tested on: Streptococcus sp. 80; experiment: MIC, broth-dilution microtiter test (Table VII); type: cell-based; details: Streptococcus sp. 80; broth-dilution microtiter; read-out: MIC
Procedure: as §1

[15] = tested on: Pasteurella multocida 40G; experiment: MIC, broth-dilution microtiter test (Table VII); type: cell-based; details: Pasteurella multocida; P. multocida 40G; broth-dilution microtiter; read-out: MIC
Summary of the method: as §4

[16] = tested on: Mycoplasma hyorhinis; experiment: MIC, broth-dilution microtiter test (Table VII); type: cell-based; details: M. hyorhinis; broth-dilution microtiter; read-out: MIC
Procedure: as §1

[17] = tested on: Staphylococcus aureus; experiment: MIC, broth-dilution microtiter test (Table VII); type: cell-based; details: Staphylococcus aureus; S. aureus; broth-dilution microtiter; read-out: MIC
Summary of the method: as §4

[18] = tested on: Proteus rettgeri PR7; experiment: MIC, standard agar-dilution assay (Table VI); type: cell-based; details: Providencia rettgeri
Procedure: as §1

[19] = tested on: Proteus morganii PR15; experiment: MIC, standard agar-dilution assay (Table VI); type: cell-based; details: Morganella morganii, PR15
Procedure: as §1

[20] = tested on: Proteus inconstans PR33; experiment: MIC, standard agar-dilution assay (Table VI); type: cell-based; details: Providencia alcalifaciens
Procedure: as §1

[21] = tested on: Enterobacter cloacae EB5; experiment: MIC, standard agar-dilution assay (Table VI); type: cell-based
Procedure: as §1

[22] = tested on: Shigella sonnei N9; experiment: MIC, standard agar-dilution assay (Table V); type: cell-based
Summary of the method: (§5)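 Growth inhibition in liquid medium, in a routine microtiter broth-dilution series, gave the MIC against staphylococci and pasteurellae; the gram-negative enteric strain was tested by conventional agar dilution instead.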

[23] = tested on: Staphylococcus aureus S13E; experiment: MIC, standard agar-dilution assay (Table V); type: cell-based; details: Staphylococcus aureus, S13E
Procedure: as §1

[24] = tested on: Staphylococcus aureus V41; experiment: MIC, standard agar-dilution assay (Table V); type: cell-based; details: Staphylococcus aureus, V41
Procedure: as §1

[25] = tested on: Klebsiella pneumoniae KAE; experiment: MIC, standard agar-dilution assay (Table V); type: cell-based; details: Klebsiella pneumoniae
Summary of the method: as §5

[26] = tested on: Escherichia coli EC14; experiment: MIC, standard agar-dilution assay (Table V); type: cell-based; details: Escherichia coli; E. coli EC14; agar dilution; read-out: MIC
Summary of the method: as §5

[27] = tested on: Escherichia coli N10; experiment: MIC, standard agar-dilution assay (Table V); type: cell-based; details: Escherichia coli
Summary of the method: as §5

[28] = tested on: Staphylococcus aureus X1.1; experiment: MIC, standard agar-dilution assay (Table V); type: cell-based; details: Staphylococcus aureus
Procedure: as §1

[29] = tested on: Staphylococcus epidermidis EPI2; experiment: MIC, standard agar-dilution assay (Table V); type: cell-based; details: Staphylococcus epidermidis, EPI2
Procedure: as §1

[30] = tested on: Staphylococcus epidermidis EPI1; experiment: MIC, standard agar-dilution assay (Table V); type: cell-based; details: Staphylococcus epidermidis
Procedure: as §1

[31] = tested on: Streptococcus Group D X66; experiment: MIC, standard agar-dilution assay (Table V); type: cell-based
Procedure: as §1

[32] = tested on: Klebsiella pneumoniae X26; experiment: MIC, standard agar-dilution assay (Table V); type: cell-based; details: Klebsiella pneumoniae
Procedure: as §1

[33] = tested on: Staphylococcus aureus X400; experiment: MIC, standard agar-dilution assay (Table V); type: cell-based; details: Staphylococcus aureus, X400
Procedure: as §1

[34] = tested on: Streptococcus Group 9960; experiment: MIC, standard agar-dilution assay (Table V); type: cell-based; details: GROUP9960
Procedure: as §1

[35] = tested on: Streptococcus pyogenes C203; experiment: ED50 in mice experimentally infected with S. pyogenes C203 (Table VIII); type: in vivo
Procedure: The C-23 modified derivatives of OMT of this invention have shown in vivo antimicrobial activity against experimental infections. When two doses of test compound were administered to mice experimentally infected with a gram-positive bacterium, S. pyogenes C203, the activity observed was measured as an ED50 value [effective dose in mg/kg to protect 50% of the test animals: see Warren Wick, et al., J. Bacteriol. 81, 233-235 (1961)].

[36] = C203, sc, mice, subcutaneous, doses given 1 and 4 hours postinfection, read-out: ED50, Subcutaneous

Structure (SMILES): CCC1OC(=O)CC(O)C(C)C(OC2OC(C)C(O)C(N(C)C)C2O)C(CC=O)CC(C)C(=O)C=CC(C)=CC1CSC(C)=O (stereo not drawn) [Compound 7, 23-Deoxy-23-(acetyl)thio-OMT]
- MIC [1]: 0.06 µg/mL (≈ 0.0915 µM)
- MIC [2]: 2 µg/mL (≈ 3.05 µM)
- MIC [3]: 0.25 µg/mL (≈ 0.381 µM)
- MIC ([4]; H. influenzae Holt, ampicillin-sensitive strain, agar dilution, read-out: MIC): 1 µg/mL (≈ 1.52 µM)
- MIC [5]: 6.25 µg/mL (≈ 9.53 µM)
- MIC [6]: 1.56 µg/mL (≈ 2.38 µM)
- MIC [7]: 1.56 µg/mL (≈ 2.38 µM)
- MIC [8]: 3.12 µg/mL (≈ 4.76 µM)
- MIC [9]: 6.25 µg/mL (≈ 9.53 µM)
- MIC [10]: ≤ 0.05 µg/mL
- MIC [11]: 0.19 µg/mL (≈ 0.29 µM)
- MIC [12]: 6.25 µg/mL (≈ 9.53 µM)
- MIC [13]: 3.12 µg/mL (≈ 4.76 µM)
- MIC [14]: 0.39 µg/mL (≈ 0.595 µM)
- MIC [15]: 0.78 µg/mL (≈ 1.19 µM)
- MIC [16]: 6.25 µg/mL (≈ 9.53 µM)
- MIC [17]: 0.39 µg/mL (≈ 0.595 µM)
- MIC ([18]; PR7): > 128 µg/mL
- MIC [19]: > 128 µg/mL
- MIC ([20]; PR33): > 128 µg/mL
- MIC ([21]; EB5): > 128 µg/mL
- MIC [22]: 64 µg/mL (≈ 97.6 µM)
- MIC [23]: 0.125 µg/mL (≈ 0.191 µM)
- MIC [24]: 0.25 µg/mL (≈ 0.381 µM)
- MIC [25]: > 128 µg/mL
- MIC [26]: 64 µg/mL (≈ 97.6 µM)
- MIC ([27]; N10): 64 µg/mL (≈ 97.6 µM)
- MIC ([28]; X1.1): 0.25 µg/mL (≈ 0.381 µM)
- MIC [29]: 0.125 µg/mL (≈ 0.191 µM)
- MIC ([30]; EPI1): 0.125 µg/mL (≈ 0.191 µM)
- MIC ([31]; Streptococcus Group D X66, agar dilution, read-out: MIC): 0.5 µg/mL (≈ 0.762 µM)
- MIC ([32]; X26): 4 µg/mL (≈ 6.1 µM)
- MIC [33]: 0.25 µg/mL (≈ 0.381 µM)
- MIC [34]: 0.25 µg/mL (≈ 0.381 µM)
- ED50 ([35]; C203, po, read-out: ED50, Oral): > 100 mg/kg
- ED50 [35, 36]: 21.4 mg/kg

Structure (SMILES): CCC1OC(=O)CC(O)C(C)C(OC2OC(C)C(O)C(N(C)C)C2O)C(CC=O)CC(C)C(=O)C=CC(C)=CC1CN=[N+]=[N-] (stereo not drawn) [Compound 8, 23-Deoxy-23-azido-OMT]
- MIC [1]: 0.06 µg/mL (≈ 0.0963 µM)
- MIC [2]: 1 µg/mL (≈ 1.61 µM)
- MIC [3]: 0.125 µg/mL (≈ 0.201 µM)
- MIC [4]: 1 µg/mL (≈ 1.61 µM)
- MIC [5]: 6.25 µg/mL (≈ 10 µM)
- MIC [6]: 1.56 µg/mL (≈ 2.5 µM)
- MIC [7]: 1.56 µg/mL (≈ 2.5 µM)
- MIC [8]: 1.56 µg/mL (≈ 2.5 µM)
- MIC [9]: 6.25 µg/mL (≈ 10 µM)
- MIC [10]: 0.39 µg/mL (≈ 0.626 µM)
- MIC [11]: 0.39 µg/mL (≈ 0.626 µM)
- MIC [12]: 6.25 µg/mL (≈ 10 µM)
- MIC [13]: 3.12 µg/mL (≈ 5.01 µM)
- MIC [14]: ≤ 0.78 µg/mL
- MIC [15]: 1.56 µg/mL (≈ 2.5 µM)
- MIC [16]: 3.12 µg/mL (≈ 5.01 µM)
- MIC [17]: ≤ 0.78 µg/mL
- MIC ([18]; P. rettgeri PR7, agar dilution, read-out: MIC): 32 µg/mL (≈ 51.4 µM)
- MIC [19]: 64 µg/mL (≈ 103 µM)
- MIC ([20]; P. inconstans PR33, agar dilution, read-out: MIC): > 128 µg/mL
- MIC ([21]; E. cloacae EB5, agar dilution, read-out: MIC): > 128 µg/mL
- MIC [22]: 32 µg/mL (≈ 51.4 µM)
- MIC [23]: 0.25 µg/mL (≈ 0.401 µM)
- MIC [24]: 0.25 µg/mL (≈ 0.401 µM)
- MIC ([25]; K. pneumoniae KAE, agar dilution, read-out: MIC): > 128 µg/mL
- MIC [26]: 32 µg/mL (≈ 51.4 µM)
- MIC ([27]; E. coli N10, agar dilution, read-out: MIC): 32 µg/mL (≈ 51.4 µM)
- MIC ([28]; S. aureus X1.1, agar dilution, read-out: MIC): 0.125 µg/mL (≈ 0.201 µM)
- MIC [29]: 0.25 µg/mL (≈ 0.401 µM)
- MIC ([30]; S. epidermidis EPI1, agar dilution, read-out: MIC): 0.125 µg/mL (≈ 0.201 µM)
- MIC [31]: 0.25 µg/mL (≈ 0.401 µM)
- MIC ([32]; K. pneumoniae X26, agar dilution, read-out: MIC): 4 µg/mL (≈ 6.42 µM)
- MIC [33]: 0.25 µg/mL (≈ 0.401 µM)
- MIC ([34]; Streptococcus Group 9960, agar dilution, read-out: MIC): 0.5 µg/mL (≈ 0.803 µM)
- ED50 ([35]; C203, po, read-out: ED50, Oral): > 100 mg/kg
- ED50 [35, 36]: 6.3 mg/kg
